Results on one substance are retold here after patent US9814754B2, “Combinations with a backbone-cyclized peptide” (POLYPHOR AG, priority 2012, dated 2017).

Square brackets hold non-standard residues; d marks the D form. dDab = NCC[C@@H](N)C(=O)O; Orn = NCCC[C@H](N)C(=O)O; Dab = NCC[C@H](N)C(=O)O

Format in all cases: in vivo
Assay [1] has as its system Pseudomonas aeruginosa clinical isolate PA9349. The experiment in a line: Murine pneumonia model, compound 1 alone (Reference 2). Conditions: for mean CFU level compared to the vehicle group: lungs. The procedure:
Efficacy in Murine Pneumonia Model Against Pseudomonas aeruginosa PA9349 and Estimation of ED50
The efficacy and ED50 of the compound of formula (I) (“compound 1”) was determined against Pseudomonas aeruginosa clinical isolate PA9349 in a pneumonia model in mice. Colony counts in the lungs were determined at 18-20 hours post treatment.
Fresh overnight colonies of PA9349 from a 5% Horse Blood Agar plate were suspended in 0.9% sterile saline to approximately 10^8 CFU/ml and further diluted to approximately 5×10^6 CFU/ml. Female mice (DBA/2, outbred, 18-22 g, Charles River) were anesthetized with 0.1 ml of Zoletil (tiletamine+zolazepam) and inoculated via the nose with a pipette with 0.05 ml of the bacteria suspension containing approximately 5×10^5 CFU. 4 hours after inoculation, the mice were treated orally with 45 μl neurophen (20 mg ibuprofen/ml corresponding to approximately 30 mg/kg) as pain relief.
One vial containing 10 mg of active compound 1 was dissolved in 5 ml 0.9% sterile saline to a concentration of 2 mg/ml and was further 2-fold diluted with saline to 1, 0.5, 0.25, 0.125 and 0.06 mg/ml. The mice were treated subcutaneously with 0.2 ml in the neck region with a single dose at 4 hours post infection with a dose calculation based on a mean animal weight of 20 g. As positive control colistin was used in the same manner with a fixed dose of 40 mg/kg.
Colony counts were determined post inoculation at 4 hours (untreated mice) and 24 hours (treated and vehicle-only treated mice). Immediately after the mice were sacrificed, the lungs were collected and frozen at −20° C. After thawing, the organs were homogenized in 1 ml 0.9% saline. Each sample was then 10-fold diluted in saline and 20 μl spots were applied on blood agar plates. All agar plates were incubated 18-48 hours at 35° C. in ambient air.
The CFU/ml in the inoculum was determined to 7.29 log10 CFU/ml corresponding to 5.98 log10 CFU/mouse.
At 4 hours after infection the mean log10 CFU/lung was 3.47 and the CFU level increased to 4.92 at […] post inoculation in the vehicle-only group.

The subject of assay [2] is Pseudomonas aeruginosa clinical isolate PA18298. The experiment in a line: Murine pneumonia model, compound 1 in combination with amikacin (Example 4). Conditions: murine lungs. The procedure:
The efficacy and ED50 of the compound of formula (I) (“compound 1”) in combination with amikacin was determined against Pseudomonas aeruginosa clinical isolate PA18298 in a pneumonia model in mice. Colony counts in lung were determined at 20 hours post treatment.
Fresh overnight colonies of PA18298 from a 5% Horse Blood Agar plate were suspended in 0.9% sterile saline to approximately 10^8 CFU/ml and further diluted to approximately 5×10^7 CFU/ml. Female mice (DBA/2, outbred, 18-22 g, Charles River) were anesthetized with 0.1 ml of Zoletil and inoculated via the nose with a pipette with 0.05 ml of the bacteria suspension containing approximately 10^6 CFU. 4 hours after inoculation, the mice were treated orally with 45 μl neurophen (20 mg ibuprofen/ml corresponding to approximately 30 mg/kg) as pain relief.
175 mg of amikacin (Sigma) were dissolved in 5 ml 0.9% sterile saline to a concentration of 35 mg/ml and further diluted with saline to 3 mg/ml. The mice were treated subcutaneously with 0.2 ml in the neck region with a single dose at 3 hours post infection corresponding to 30 mg/kg on the basis of a mean animal weight of 20 g.
One vial containing 10 mg of active compound 1 was dissolved in 2 ml 0.9% sterile saline to a concentration of 5 mg/ml and further diluted with saline […], 1, 0.55, 0.275 and 0.137 mg/ml. The mice were treated subcutaneously with 0.2 ml in the neck region with a single dose at 4 hours post infection with a dose calculation based on a mean animal weight of 20 g. Colistin was used as a control in the same manner with a fixed dose of 20 mg/kg.
(§1) Colony counts were determined post inoculation at 4 hours (untreated mice) and 24 hours (treated and vehicle-only treated mice). Immediately after the mice were sacrificed, the lungs were collected and frozen at −20° C. After thawing, the organs were homogenized in 1 ml 0.9% saline. Each sample was then 10 fold diluted in saline and 20 μl spots were applied on blood agar plates. All agar plates were incubated 18-24 hours at 35° C. in ambient air.
The CFU/ml in the inoculum was determined to 7.4 log10 CFU/ml corresponding to 6.17 log10 CFU/mouse.
At 4 hours after inoculation the mean log 10 CFU/lung was 5.06 and the CFU level declined to 1.55 mean log 10 CFU/lung after 24 hours in the vehicle group.

Assay [3] deals with Pseudomonas aeruginosa clinical isolate PAX11045. The experiment in a line: Murine pneumonia model, compound 1 in combination with azithromycin (Example 2). The procedure: The efficacy and ED50 of the compound of formula (I) (“compound 1”) in combination with azithromycin was determined against Pseudomonas aeruginosa clinical isolate PAX11045 in a pneumonia model in mice. Colony counts in lung were determined at 20 hours post treatment.
Fresh overnight colonies of PAX11045 from a 5% Horse Blood Agar plate were suspended in 0.9% sterile saline to approximately 10^8 CFU/ml and further diluted to approximately 5×10^7 CFU/ml. Female mice (DBA/2, outbred, 17-23 g, Charles River) were anesthetized with 0.1 ml of Zoletil and inoculated via the nose with a pipette with 0.05 ml of the bacteria suspension containing approximately 10^6 CFU. 4 hours after inoculation, the mice were treated orally with 45 μl neurophen (20 mg ibuprofen/ml corresponding to approximately 30 mg/kg) as pain relief.
480 mg of azithromycin (Zitromax™, Pfizer) were dissolved in 4.8 ml 0.9% sterile saline to a concentration of 100 mg/ml and further diluted with saline to 5 mg/ml. The mice were treated subcutaneously with 0.2 ml in the neck region with a single dose at 3 hours post infection corresponding to 50 mg/kg on the basis of a mean animal weight of 20 g.
The mice were treated subcutaneously with 0.2 ml in the neck region with a single dose at 4 hours post infection with a dose calculation based on a mean animal weight of 20 g.
as §1

Setting [4] is: compound 1 alone, s.c., murine lungs.
Where [5] appears, read: in presence of 30 mg/kg amikacin.
Where [6] appears, read: in presence of 50 mg/kg azithromycin, murine lungs.

As for “cyclo(TWI[Dab][Orn][dDab][Dab]W[Dab][Dab]AS[dP]P) [compound 1]”, the “mean CFU level compared to the vehicle group” value in assay [1] (10 mg/kg treatment group) is listed as “reduction of the mean CFU level”; in assay [1] (20 mg/kg treatment group) it was “significant reduction”. Moreover, the Top level in assay [1] (compound 1 alone, s.c. single dose 4 h post infection, murine lungs) is listed as 1.59 log10 CFU/ml; in assay [2] (compound 1 s.c. in presence of 30 mg/kg amikacin (s.c., 3 h post infection)) it was −3.03 log10 CFU/ml; in assay [3] (compound 1 s.c. in presence of 50 mg/kg azithromycin (s.c., 3 h post infection), murine lungs), −0.10 log10 CFU/ml. In addition, the figures for the Bottom level in assay [1] (setting [4]), in assay [2] (setting [5]) and in assay [3] (setting [6]) were −0.80 log10 CFU/ml, −3.82 log10 CFU/ml and −2.59 log10 CFU/ml, respectively. In addition, the Emax in assay [1] (setting [4]) is −2.4 log10 CFU/ml; in assay [2] (setting [5]), 0.79 log10 CFU/ml; in assay [3] (setting [6]), 2.49 log10 CFU/ml. Further, the results for the Static dose in assay [1] (setting [4]) and in assay [3] (setting [6]) were 9.15 mg/kg and 0.63 mg/kg, respectively. Further, the ED50 in assay [1] (compound 1 alone, s.c., murine lungs, sigmoidal dose-response model (variable slope)) is reported as 7.35 mg/kg; in assay [2] (in presence of fixed dose of 30 mg/kg amikacin), 9.1 mg/kg; in assay [3] (in presence of fixed dose of 50 mg/kg azithromycin, murine lungs) it was 1.74 mg/kg. The “effect on bacterial loads” value in assay [3] (5.5 mg/kg alone, lung, p<0.001) is reported as “significant effect on reducing the bacterial loads”. Also, the “CFU levels compared to vehicle treatment” value in assay [3] (combination of compound 1 (dose series) and azithromycin 50 mg/kg, lung, p<0.01-p<0.001) is given as “concentration dependent significant reduction of the CFU levels”. The “1 log killing dose” value in assay [3] (setting [6]) was 1.2 mg/kg. Further, in assay [3] (setting [6]), the “2 log killing dose” value stood at 2.4 mg/kg.
